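These data come from cells grown in 96-well plates and exposed to compound for 48 hours at five concentrations. Definition used: TGI = concentration required for complete inhibition of growth.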

The source of these data is PubChem BioAssay (NCI).

Holding throughout (assay): NCI anticancer screen, dose series, 48 h
Experiment [1] concerns OVCAR-3 ovarian.
Experiment [2] has as its system SK-MEL-2 melanoma.
In experiment [3] the test system is SNB-75 CNS.
Experiment [4] has as its system HT29 colon.
Experiment [5] relates to HCT-116 colon.
Experiment [6] has as its system SF-268 CNS.
Experiment [7] relates to UO-31 renal.
Experiment [8] has as its system MCF7 breast.
In experiment [9] the test system is BT-549 breast.
Experiment [10] has as its system SNB-19 CNS.
Experiment [11] has as its system PC-3 prostate.
For experiment [12], the system named is COLO 205 colon.
Experiment [13] relates to A549 NSCLC.
Experiment [14] concerns OVCAR-8 ovarian.

For `CCOC(=O)C(OP(=O)(OCC)OCC)C(F)(F)F` (configuration not stated), the TGI in [1], in [2], in experiment [3], in experiment [4], in experiment [5] and in experiment [6] was more than 100 µM throughout. For the same molecule, the TGI in [7], in experiment [8], in experiment [9] and in experiment [10] was more than 100 µM each time.

On to `CCOC(=O)C(CCc1ncnc2c1ncn2Cc1ccccc1)(CCc1ncnc2c1ncn2Cc1ccccc1)C(=O)OCC`, for which the TGI in [1], in [2], in [11], in [12], in experiment [4] and in [5] was more than 100 µM each time. In addition, the TGI in experiment [6] is more than 100 µM; in experiment [13], more than 100 µM; in [7], 10.9 µM; in experiment [8] it was more than 100 µM; in experiment [9], more than 100 µM; in [10] it was more than 100 µM. This molecule registered a TGI in experiment [14] of more than 100 µM.

As for `COC1=CC(=O)C2=C(C[C@@]3(C)C(=C2)C(CO)=CC[C@H]3O)C1=O`, the TGI in experiment [1] is 56.2 µM; in [11], 69.1 µM; in experiment [12], 65.9 µM; in experiment [4] it was more than 100 µM; in experiment [5], 40.8 µM; in experiment [6], 32.7 µM. Besides, the TGI is more than 100 µM in experiment [13]; 39.5 µM in experiment [7]; 32.3 µM in experiment [8]; 34 µM in experiment [9]; more than 100 µM in experiment [10]; 32.9 µM in experiment [14].

In the case of `COC1C(O)C(C)OC(OC2CCC3(C)C(CCC4C3C(O)CC3(C)C(C5=CC(=O)OC5)CCC43O)C2)C1O` (configuration not stated), the TGI in experiment [1] was determined as 0.553 µM; in [2], 1.59 µM; in experiment [3], 2.78 µM; in experiment [11] it was 5.17 µM; in experiment [12], 1.57 µM; in [4], 2.23 µM. For the same molecule, the TGI in [5] worked out at 0.533 µM; in experiment [6], 0.532 µM; in experiment [13], 0.192 µM; in experiment [9], 0.429 µM; in experiment [10] it was 2.04 µM; in experiment [14], 1.67 µM.

For the molecule `CC(=O)/C(C=Nc1c(C)n(C)n(C)c1=O)=C(/O)c1ccccc1`, the TGI in [1], in [2], in experiment [11], in [12], in experiment [4] and in experiment [5] was more than 50 µM each time. The TGI in experiment [6], in experiment [13], in experiment [7], in [8], in experiment [9] and in [10] was more than 50 µM each time.

As for `N#Cc1c(N2CCN(c3ccc([N+](=O)[O-])cc3)CC2)[n+](=O)c2ccccc2n1[O-]`, the TGI in experiment [1], in experiment [2], in experiment [3], in experiment [11], in [12] and in experiment [4] was more than 100 µM in each case. Moreover, the TGI in experiment [5] is more than 100 µM; in [6] it was 0.921 µM; in experiment [13], more than 100 µM; in [8], more than 100 µM; in [9] it was more than 100 µM; in [10], more than 100 µM. The TGI in experiment [14] was more than 100 µM.

For the molecule `O=C1c2ccccc2C(=O)N1CC(CN1C(=O)c2ccccc2C1=O)(C(=O)OCc1ccccc1)C(=O)OCc1ccccc1`, the TGI in experiment [1], in [2], in experiment [3], in [11], in [12] and in [4] was more than 100 µM each time. In addition, the TGI in [5], in [7], in experiment [9], in [10] and in experiment [14] was more than 100 µM each time.

Consider `O=[N+]([O-])C(=C/c1cccs1)/C(=C\c1cccs1)[N+](=O)[O-]`, for which the TGI in experiment [1] is 21.7 µM; in experiment [2] it was 6.46 µM; in experiment [3] it was more than 95.2 µM; in [12], 2.93 µM; in [4], 6.13 µM; in [5], 2.49 µM. For the same molecule, the TGI in experiment [6] worked out at 10.4 µM; in experiment [13] it was 9.59 µM; in experiment [8], 7.72 µM; in experiment [9], 4.27 µM; in experiment [10], 5.16 µM; in experiment [14], 8.06 µM.

Turning to `O=c1oc2ccc([N+](=O)[O-])cc2cc1Br`, the TGI in [1], in [2], in [11], in experiment [12], in [4] and in experiment [5] was more than 100 µM in each case. Further, the TGI in experiment [6], in experiment [13], in experiment [7], in experiment [8], in experiment [9] and in experiment [10] was more than 100 µM throughout. For the same molecule, the TGI in experiment [14] is more than 100 µM.

Turning to `Cc1cccc2c1c(=O)c1c(O)cc(O)cc1n2C`, the TGI in [1], in experiment [2], in experiment [3], in experiment [11], in experiment [12] and in [4] was more than 100 µM each time. In addition, the TGI in experiment [5], in experiment [6], in experiment [13], in [8], in [9] and in [10] was more than 100 µM throughout. For the same molecule, the TGI in [14] is more than 100 µM.

On to `COC(=O)C1=C(CCC[C@H](C)O[Si](C)(C)C(C)(C)C)NC(=O)N2[C@@H](CCO)CC[C@H]12`, for which the TGI in experiment [1] stood at 27.9 µM; in experiment [3], 30.5 µM; in [12], 34 µM; in experiment [4], 29.8 µM; in [5], 20 µM; in experiment [6], 28.6 µM. The TGI came out at 25.6 µM in [13]; 29.7 µM in [7]; 28.4 µM in experiment [9]; 29 µM in experiment [10]; 29.5 µM in experiment [14].
